{"source": "paper PMC7503713", "about": "“GANT61 Reduces Hedgehog Molecule (GLI1) Expression and Promotes Apoptosis in Metastatic Oral Squamous Cell Carcinoma Cells” (International Journal of Molecular Sciences, 2020)", "assay_type_in_all_cases": "cell-based, human", "key": {"HT-29": {"system": "HT-29", "test": "alamarBlue cytotoxicity assay, HT-29", "conditions": "Homo sapiens; HT-29, alamarBlue, 72 h of incubation", "method": "(§1) To assess the cytotoxicity of the GLI inhibitor GANT61 (Sigma-Aldrich, St. Louis, MO, USA) in tumor and non-tumor cell lines, an alamarBlue assay (Sigma-Aldrich Chemical Co, St. Louis, MO, USA) was performed after 72 h of exposure to the inhibitor, as described by Ahmed et al., 1994 [46]. Cells were distributed on 96-well plates at a density of 7 × 10^4 cells/mL for adhered cells, and 3 × 10^5 cells/mL for cells in suspension. All tested compounds were dissolved in DMSO, added to wells containing 100 µL of cells in complete medium, and then incubated for 72 h. Eight concentrations of GANT61 (0.19 to 50 µg/mL), Doxorubicin (Laboratory IMA S.A.I.C., Buenos Aires, Argentina), and 5-Fluorouracil (5-FU, Sigma-Aldrich, St. Louis, MO, USA), both used as positive controls at concentrations ranging from 0.03 to 5 µg/mL, were added to respective wells. […] Absorbance was measured at 570 nm (reduced) and 595 nm (oxidized) wavelengths, using a Spectramax 190 plate reader (Molecular Devices; Sunnyvale, CA, USA).\n(§2) Statistical analyses were performed, using GraphPad Prism v. […] Data were analyzed according to distribution along the normal Gaussian curve. […] Differences between groups resulting from in vitro assays were evaluated by ANOVA (analysis of variance) testing, followed by the Student–Newman–Keuls test. […]"}, "K562": {"system": "K562", "test": "alamarBlue cytotoxicity assay, K562", "conditions": "Homo sapiens, 72 h of incubation", "method": "(§3) To assess the cytotoxicity of the GLI inhibitor GANT61 (Sigma-Aldrich, St. Louis, MO, USA) in tumor and non-tumor cell lines, an alamarBlue assay (Sigma-Aldrich Chemical Co, St. Louis, MO, USA) was performed after 72 h of exposure to the inhibitor, as described by Ahmed et al., 1994 [46]. Cells were distributed on 96-well plates at a density of 7 × 10^4 cells/mL for adhered cells, and 3 × 10^5 cells/mL for cells in suspension. All tested compounds were dissolved in DMSO, added to wells containing 100 µL of cells in complete medium, and then incubated for 72 h. Eight concentrations of GANT61 (0.19 to 50 µg/mL), Doxorubicin (Laboratory IMA S.A.I.C., Buenos Aires, Argentina), and 5-Fluorouracil (5-FU, Sigma-Aldrich, St. Louis, MO, USA), both used as positive controls at concentrations ranging from 0.03 to 5 µg/mL, were added to respective wells. Cells treated with the vehicle (0.5% DMSO) used to dilute the tested compounds were used as negative controls. Before the end of the incubation period (4 h for cell lines and 24 h for PBMCs), 20 µL of alamarBlue stock solution (resazurin, Sigma-Aldrich, St. Louis, MO, USA) was added to each well. Absorbance was measured at 570 nm (reduced) and 595 nm (oxidized) wavelengths, using a Spectramax 190 plate reader (Molecular Devices; Sunnyvale, CA, USA).\n(§4) Statistical analyses were performed, using GraphPad Prism v. 6.03 (GraphPad Software, Inc., San Diego, USA). Data were analyzed according to distribution along the normal Gaussian curve. IC50 values were obtained through non-linear regression, using results from three independent experiments carried out in duplicate. Differences between groups resulting from in vitro assays were evaluated by ANOVA (analysis of variance) testing, followed by the Student–Newman–Keuls test. This study considered a level of significance, corresponding to alpha (α) or “p” value, when results were less than or equal to 5%."}, "SCC15": {"system": "SCC15", "test": "alamarBlue cytotoxicity assay, SCC15", "conditions": "Homo sapiens, SCC-15, 72 h of incubation", "method": "as §1, §2"}, "APC03": {"system": "APC03", "test": "alamarBlue cytotoxicity assay, APC03", "conditions": "Homo sapiens, 72 h of incubation", "method": "as §1, §2"}, "HCT-116": {"system": "HCT-116", "test": "alamarBlue cytotoxicity assay, HCT-116", "conditions": "Homo sapiens; HCT-116, alamarBlue, 72 h of incubation", "method": "as §3, §4"}, "AGP01": {"system": "AGP01", "test": "alamarBlue cytotoxicity assay, AGP01", "conditions": "Homo sapiens, 72 h of incubation", "method": "as §1, §2"}, "SCC9": {"system": "SCC9", "test": "alamarBlue cytotoxicity assay, SCC9", "conditions": "Homo sapiens, SCC-9, 72 h of incubation", "method": "as §3, §4"}, "SCC25": {"system": "SCC25", "test": "alamarBlue cytotoxicity assay, SCC25", "conditions": "Homo sapiens, SCC-25, 72 h of incubation", "method": "as §1, §2"}, "PBMC": {"system": "PBMC", "test": "alamarBlue cytotoxicity assay, PBMC", "conditions": "Homo sapiens, 72 h of incubation", "method": "Human peripheral blood mononuclear cells (PBMC) lymphocytes and monocytes) were obtained from the peripheral blood of healthy, non-smoking volunteers aged 25–35 years. None of the volunteers had used any type of drug or medication for at least 15 days prior to collection. Blood collection (5 mL) was performed in heparinized vials by trained professionals at the Laboratory of Tissue Engineering and Immunopharmacology (LETI, IGM-FIOCRUZ, Salvador, Brazil), using sterile disposable syringes. PBMCs were isolated by a standard protocol described by Dias et al. (2018). The institutional review board of the Gonçalo Moniz Institution, Oswaldo Cruz Foundation (IGM-FIOCRUZ), in Salvador, Bahia, Brazil, approved all experimental protocols (No.031019/2013). All participants provided written informed consent prior to participation in the study.\nas §1, with “h.” for “h. Eight concentrations of GANT61 (0.19 to 50 µg/mL), Doxorubicin (Laboratory IMA S.A.I.C., Buenos Aires, Argentina), and 5-Fluorouracil (5-FU, Sigma-Aldrich, St. Louis, MO, USA), both used as positive controls at concentrations ranging from 0.03 to 5 µg/mL, were added to respective wells.”\nas §2"}, "SCC4": {"system": "SCC4", "test": "alamarBlue cytotoxicity assay, SCC4", "conditions": "Homo sapiens, SCC-4, 72 h of incubation", "method": "as §1, §2"}, "HSC3": {"system": "HSC3", "test": "alamarBlue cytotoxicity assay, HSC3", "conditions": "Homo sapiens, HSC-3, 72 h of incubation", "method": "For cytotoxicity assessments, this study primarily focused on the highly metastatic HSC3 OSCC cell line (JCRB Cell Bank, Osaka, Japan) and employed other histological tumor cell types and non-tumor cells (Supplementary Table S1). HSC3 cells were placed in flasks ([…], 250 mL volume) containing DMEM medium (Gibco, Lif Technologies, Gaithesburg, MD, USA) supplemented with 10% fetal bovine serum (FBS, Gibco, Life Technologies, Gaithesburg, MD, USA) 1% penicillin, 1% streptomycin (Gibco, Life Technologies, Gaithesburg, MD, USA), and 0.8% hydrocortisone (Sigma-Aldrich, St. Louis, MO, USA). Cells were cultured and kept in incubators, under an atmosphere of 5% CO2 at 37 °C. Trypsinization was used to dissociate cells when cell growth reached the necessary confluence, i.e., 70 to 80% of the total culture flask volume. Cell cultures were tested periodically for mycoplasma contamination and evaluated by using a luminometer, according to the MycoAlert^TM PLUS protocol (Lonza, Walkersville Inc., Walkersville, MD, USA, 2012).\nas §3\nStatistical analyses were performed, using GraphPad Prism v. 6.03 (GraphPad Software, Inc., San Diego, USA). Data were analyzed according to distribution along the normal Gaussian curve. […] Differences between groups resulting from in vitro assays were evaluated by ANOVA (analysis of variance) testing, followed by the Student–Newman–Keuls test. […]"}, "HepG2": {"system": "HepG2", "test": "alamarBlue cytotoxicity assay, HepG2", "conditions": "Homo sapiens, 72 h of incubation", "method": "as §3, §4"}, "APC02": {"system": "APC02", "test": "alamarBlue cytotoxicity assay, APC02", "conditions": "Homo sapiens, 72 h of incubation", "method": "as §1, §2"}, "HaCat": {"system": "HaCat", "test": "alamarBlue cytotoxicity assay, HaCat", "conditions": "Homo sapiens, 72 h of incubation", "method": "as §1, §2"}, "CAL27": {"system": "CAL27", "test": "alamarBlue cytotoxicity assay, CAL27", "conditions": "Homo sapiens, CAL-27, 72 h of incubation", "method": "as §3, §4"}, "HL60": {"system": "HL60", "test": "alamarBlue cytotoxicity assay, HL60", "conditions": "Homo sapiens, HL-60, 72 h of incubation", "method": "as §1, §2"}}, "data": [{"smiles": "COc1cccc2c1C(=O)c1c(O)c3c(c(O)c1C2=O)C[C@@](O)(C(=O)CO)C[C@@H]3O[C@H]1C[C@H](N)[C@H](O)[C@H](C)O1", "note": "[Doxorubicin]", "values": [{"measurement": "IC50", "setting": "HT-29", "value": 300, "unit": "nM"}, {"measurement": "IC50", "setting": "K562", "value": 50, "unit": "nM"}, {"measurement": "IC50", "setting": "SCC15", "value": 1500, "unit": "nM"}, {"measurement": "IC50", "setting": "APC03", "value": 2300, "unit": "nM"}, {"measurement": "IC50", "setting": "HCT-116", "value": 200, "unit": "nM"}, {"measurement": "IC50", "setting": "AGP01", "value": 1890, "unit": "nM"}, {"measurement": "IC50", "setting": "SCC9", "value": 800, "unit": "nM"}, {"measurement": "IC50", "setting": "SCC25", "value": 1400, "unit": "nM"}, {"measurement": "IC50", "setting": "PBMC", "value": 5200, "unit": "nM"}, {"measurement": "IC50", "setting": "SCC4", "value": 70, "unit": "nM"}, {"measurement": "IC50", "setting": "HSC3", "value": 340, "unit": "nM"}, {"measurement": "IC50", "setting": "HepG2", "value": 10, "unit": "nM"}, {"measurement": "IC50", "setting": "APC02", "value": 6800, "unit": "nM"}, {"measurement": "IC50", "setting": "HaCat", "value": 100, "unit": "nM"}, {"measurement": "IC50", "setting": "CAL27", "value": 3090, "unit": "nM"}, {"measurement": "IC50", "setting": "HL60", "value": 10, "unit": "nM"}]}]}
